Here are results for 18 compounds from patent publication US10308608B2, “Histone deacetylase inhibitors” (BIOMARIN PHARMACEUTICAL INC., priority 2015, dated 2019).

Counter-ions that a name gives are not always drawn.

The first assay relates to Frataxin (FXN) mRNA. The assay can be described thus: Effect of HDAC inhibitors on frataxin (FXN) mRNA expression, qRT-PCR in compound-treated iPSC derived neuronal cells. Type of assay: cell-based. Particulars: iPSC, 24 h, compound concentration of 0.625 μM, 24 h incubation, read-out: FXN mRNA fold induction. The essentials: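 iPSC-derived neuronal cells, differentiated 16 days without EGF/bFGF, treated with compound 24 h. FXN mRNA measured by one-step SYBR Green qRT-PCR; fold induction reported at 0.625 μM compound, binned A<1, 1<B<2, 2<C<3, 3<D<5, E>5.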
Take `CC1(CN2CC(Oc3ccc(C(=O)Nc4ccccc4N)cc3)C2)CC1` [Compound 47, N-(2-aminophenyl)-4-((1-((1-methylcyclopropyl)methyl)azetidin-3-yl)oxy)benzamide dihydrochloride]: the fold induction at 0.625 µM was 1 to 2.
For `Nc1ccccc1NC(=O)c1ccc(N[C@H]2CCN(CC3CCCCC3)C2)cc1` [Compound 101, (S)-N-(2-aminophenyl)-4-((1-(cyclohexylmethyl)pyrrolidin-3-yl)amino)benzamide], the fold induction at 0.625 µM was 2 to 3.
Still for that read-out and setting: for `CC(C)(C)CN1CCCC(Oc2ccc(C(=O)Nc3ccccc3N)cc2)CC1` (stereo not drawn) [Compound 37, N-(2-aminophenyl)-4-((1-neopentylazepan-4-yl)oxy)benzamide] the value was 2 to 3; for `CC(C)(C)CN1CC[C@H](Oc2ccc(C(=O)Nc3ccccc3N)cc2)C1` [Compound 53, (S)-N-(2-aminophenyl)-4-((1-neopentylpyrrolidin-3-yl)oxy)benzamide], 1 to 2; for `Nc1ccccc1NC(=O)c1ccc(NC2CNC2)cc1` [Compound 86, N-(2-aminophenyl)-4-(azetidin-3-ylamino)benzamide trihydrochloride], 2 to 3.
Same read-out and setting: the value for `CC(C)(O)CN1CCC(Sc2ccc(C(=O)Nc3ccccc3N)cc2)CC1` [Compound 375, N-(2-aminophenyl)-4-((1-(2-hydroxy-2-methylpropyl)piperidin-4-yl)thio)benzamide] was 1 to 2; that for `Nc1ccccc1NC(=O)c1ccc(OC2CCN(C3CC3)CC2)cc1` [Compound 131, N-(2-aminophenyl)-4-((1-cyclopropylpiperidin-4-yl)oxy)benzamide dihydrochloride] was 1 to 2; that for `Nc1ccccc1NC(=O)c1ccc(O[C@H]2CCN(CC3CC3)C2)cc1` [Compound 54, (S)-N-(2-aminophenyl)-4-((1-(cyclopropylmethyl)pyrrolidin-3-yl)oxy)benzamide dihydrochloride] was 1 to 2.
Still for that read-out and setting: the value for `Nc1ccccc1NC(=O)c1ccc(NC2CCN(CC3CC3)CC2)cc1` [Compound 3, N-(2-aminophenyl)-4-((1-(cyclopropylmethyl)piperidin-4-yl)amino)benzamide] was 1 to 2; that for `Nc1ccccc1NC(=O)c1ccc(NC2CCN(C3CC3)CC2)cc1` [Compound 140, N-(2-aminophenyl)-4-((1-cyclopropylpiperidin-4-yl)amino)benzamide trihydrochloride trihydrochloride] was 2 to 3; that for `Nc1ccccc1NC(=O)c1ccc(O[C@@H]2CCN(CC3CC3)C2)cc1` [Compound 62, (R)-N-(2-aminophenyl)-4-((1-(cyclopropylmethyl)pyrrolidin-3-yl)oxy)benzamide dihydrochloride] was 1 to 2.
On to `Nc1ccccc1NC(=O)c1ccc(OC2CN(CC3CC3)C2)cc1` [Compound 46, N-(2-aminophenyl)-4-((1-(cyclopropylmethyl)azetidin-3-yl)oxy)benzamide dihydrochloride], for which the fold induction at 0.625 µM lay in the range of 1 to 2.
Still for that read-out and setting: for `Nc1ccccc1NC(=O)c1ccc(NC2CN(C3CC3)C2)cc1` [Compound 134, N-(2-aminophenyl)-4-((1-cyclopropylazetidin-3-yl)amino)benzamide trihydrochloride] the value was 1 to 2.

Staying with this assay, now noted: iPSC, 24 h, read-out: FXN mRNA fold induction, compound concentration of 0.625 μM, 24 h incubation.
Consider `Nc1ccccc1NC(=O)c1ccc(OC2CC3CCC(C2)N3CC2CCCCC2)cc1` (stereo not drawn) [Compound 77, N-(2-aminophenyl)-4-((8-(cyclohexylmethyl)-8-azabicyclo[3.2.1]octan-3-yl)oxy)benzamide dihydrochloride], for which the fold induction at 0.625 µM lay within 1 to 2.
The same measure, in the same setting: the value for `Nc1ccccc1NC(=O)c1ccc(NC2CC3CCC(C2)N3CC2CCCCC2)cc1` (stereo not drawn) [Compound 122, N-(2-aminophenyl)-4-((8-(cyclohexylmethyl)-8-azabicyclo[3.2.1]octan-3-yl)amino)benzamide] was 2 to 3.
Same read-out and setting: for `CC1(CN2C3CCC2CC(Oc2ccc(C(=O)Nc4ccccc4N)cc2)C3)CC1` (stereo not drawn) [Compound 76, N-(2-aminophenyl)-4-((8-((1-methylcyclopropyl)methyl)-8-azabicyclo[3.2.1]octan-3-yl)oxy)benzamide dihydrochloride] the value was 2 to 3.
Same read-out and setting: for `CN1C2CCC1CC(Nc1ccc(C(=O)Nc3ccccc3N)cc1)C2` (stereo not drawn) [Compound 116, N-(2-aminophenyl)-4-((8-methyl-8-azabicyclo[3.2.1]octan-3-yl)amino)benzamide trihydrochloride] the value was 2 to 3; for `CC(C)(O)CN1C2CCC1CC(Oc1ccc(C(=O)Nc3ccccc3N)cc1)C2` (stereo not drawn) [Compound 73, N-(2-aminophenyl)-4-((8-(2-hydroxy-2-methylpropyl)-8-azabicyclo[3.2.1]octan-3-yl)oxy)benzamide dihydrochloride], 1 to 2.
